This test relates to CERT mRNA. The experiment in a line: Test for screening active agents by real-time RT-PCR: expression of CERT mRNA in keratinocytes. Format: cell-based. The conditions noted are these: normal human keratinocytes (neonatal foreskin), 24 hours incubation, concentration 0.0005%, number of times of increase vs untreated (1.0), normalized to RPLPO. On the procedure: The effect of two active agents on the expression of the mRNA of CERT was evaluated in keratinocytes. Keratinocytes derived from neonatal foreskins (Cascade Biologics/Invitrogen, Portland, Oreg., USA) are inoculated in 6-well plates and cultured in keratinocyte growth culture medium (Epilife, Invitrogen), i.e. a modified culture medium supplemented with EDGS. After culturing for 24 hours in an incubator at 37° C., the 70%-80% confluent cells are washed with PBS buffer (Invitrogen) and incubated with basic medium (Epilife, Invitrogen) containing the active agent to be tested, for 24 hours and in triplicate, at increasing concentrations. After studying the cytotoxicity of the active agent, its activity is evaluated. To quantify the expression of CERT messenger RNA in a treated sample relative to an untreated sample, first the RNA is isolated using the RNeasy reagent kit (Qiagen, CA, USA) and then quantified using the QuantIt kit (Invitrogen). Reverse transcription is performed using the gene Amp RNA PCR kit (Applied Biosystems) according to the manufacturer's recommendations. The real-time PCR measurement is performed using the iCYCLER IQ machine (Bio-Rad, CA, USA) with Taqman probes. […] The relative quantification of the expression of the target gene is performed using the Pfaffl mathematical model (Pfaffl, MW, Nucleic Acids Res. 29(9), p. […], 2001). […]

Each structure is given as a SMILES string.

Take `O=C(O)CCCC[C@@H]1CCSS1` (racemic) [Lipoic acid]: the “Stimulation of CERT mRNA” value came to 2.0.
For `Oc1ccc(C=Cc2cc(O)cc(O)c2)cc1` [Resveratrol], the “Stimulation of CERT mRNA” value is given as 2.4.

These data come from patent US9228999B2, “Method for screening active agents that stimulate the expression of CERT to improve the skin's barrier function” (CHANEL PARFUMS BEAUTE, priority 2009, dated 2016).
